Assay results taken from PubChem BioAssay (NCI).
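At the GI50, growth is halved. TGI is the concentration that stops growth completely.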

What was measured:
Experiment in all cases: NCI tumour cell line growth inhibition, 384-well format
HCT-15 colon = system: HCT-15 colon
ACHN renal = system: ACHN renal
IGROV1 ovarian = system: IGROV1 ovarian
RXF 393 renal = system: RXF 393 renal
MALME-3M melanoma = system: MALME-3M melanoma
MDA-MB-468 breast = system: MDA-MB-468 breast
T-47D breast = system: T-47D breast
NCI-H226 lung = system: NCI-H226 lung
NCI-H460 NSCLC = system: NCI-H460 NSCLC
PC-3 prostate = system: PC-3 prostate
A549 NSCLC = system: A549 NSCLC
HCC-2998 colon = system: HCC-2998 colon
UO-31 renal = system: UO-31 renal
SW-620 colon = system: SW-620 colon
CCRF-CEM leukemia = system: CCRF-CEM leukemia
DU-145 prostate = system: DU-145 prostate
SNB-19 CNS = system: SNB-19 CNS
SF-539 CNS = system: SF-539 CNS
K-562 leukemia = system: K-562 leukemia
KM12 colon = system: KM12 colon
TK-10 renal = system: TK-10 renal
BT-549 breast = system: BT-549 breast
MDA-MB-435 melanoma = system: MDA-MB-435 melanoma
786-0 renal = system: 786-0 renal
HOP-62 NSCLC = system: HOP-62 NSCLC
SF-268 CNS = system: SF-268 CNS
EKVX NSCLC = system: EKVX NSCLC
RPMI-8226 leukemia = system: RPMI-8226 leukemia
SK-MEL-28 melanoma = system: SK-MEL-28 melanoma
CAKI-1 renal = system: CAKI-1 renal
SN12C renal = system: SN12C renal
SR leukemia = system: SR leukemia
U251 glioblastoma = system: U251 glioblastoma
UACC-257 melanoma = system: UACC-257 melanoma
M14 melanoma = system: M14 melanoma
HCT-116 colon = system: HCT-116 colon
HS 578T breast = system: HS 578T breast
NCI-H322M lung = system: NCI-H322M lung
OVCAR-3 ovarian = system: OVCAR-3 ovarian
MDA-MB-231 breast = system: MDA-MB-231 breast
NCI-H522 lung = system: NCI-H522 lung
SNB-75 CNS = system: SNB-75 CNS
HOP-92 NSCLC = system: HOP-92 NSCLC
OVCAR-5 ovarian = system: OVCAR-5 ovarian
LOX IMVI melanoma = system: LOX IMVI melanoma
MCF7 breast = system: MCF7 breast
HL-60(TB) leukemia = system: HL-60(TB) leukemia
NCI-H23 lung = system: NCI-H23 lung
NCI/ADR-RES ovarian = system: NCI/ADR-RES ovarian
A498 renal = system: A498 renal
SF-295 CNS = system: SF-295 CNS
MOLT-4 leukemia = system: MOLT-4 leukemia
HT29 colon = system: HT29 colon
COLO 205 colon = system: COLO 205 colon
SK-MEL-5 melanoma = system: SK-MEL-5 melanoma
OVCAR-4 ovarian = system: OVCAR-4 ovarian
OVCAR-8 ovarian = system: OVCAR-8 ovarian
SK-OV-3 ovarian = system: SK-OV-3 ovarian

## COc1c/c(=C2/C=c3ccccc3=N2)[nH]/c1=C/c1[nH]c(C)cc1C
HCT-15 colon
  GI50: 0.0179 µM
  TGI: 0.0352 µM
ACHN renal
  GI50: 0.0325 µM
  TGI: 0.123 µM
IGROV1 ovarian
  GI50: 0.0309 µM
  TGI: 0.0991 µM
RXF 393 renal
  GI50: 0.0142 µM
  TGI: 0.0516 µM
MALME-3M melanoma
  GI50: 0.0272 µM
  TGI: 0.0643 µM
MDA-MB-468 breast
  GI50: 0.197 µM
  TGI: 0.587 µM
T-47D breast
  GI50: 0.0502 µM
  TGI: 0.194 µM
NCI-H226 lung
  GI50: 0.0153 µM
  TGI: 0.0323 µM
NCI-H460 NSCLC
  GI50: 0.0195 µM
  TGI: 0.041 µM
PC-3 prostate
  GI50: 0.0178 µM
  TGI: 0.0768 µM
A549 NSCLC
  GI50: 0.12 µM
  TGI: 0.385 µM
HCC-2998 colon
  GI50: 0.0171 µM
  TGI: 0.069 µM
UO-31 renal
  GI50: 0.0188 µM
  TGI: 0.0353 µM
SW-620 colon
  GI50: 0.0222 µM
  TGI: 0.0472 µM
CCRF-CEM leukemia
  GI50: 0.0164 µM
  TGI: 0.0328 µM
DU-145 prostate
  GI50: 0.0338 µM
  TGI: 1.06 µM
SNB-19 CNS
  GI50: 0.0545 µM
  TGI: 1.29 µM
SF-539 CNS
  GI50: 0.0316 µM
  TGI: 0.0832 µM
K-562 leukemia
  GI50: 0.0629 µM
  TGI: 0.244 µM
KM12 colon
  GI50: 0.0278 µM
  TGI: 0.0998 µM
TK-10 renal
  GI50: 0.0252 µM
  TGI: 0.0655 µM
BT-549 breast
  GI50: 0.0156 µM
  TGI: 0.0582 µM
MDA-MB-435 melanoma
  GI50: 0.0236 µM
  TGI: 0.0532 µM
786-0 renal
  GI50: 0.0138 µM
  TGI: 0.0338 µM
HOP-62 NSCLC
  GI50: 0.0241 µM
  TGI: 0.0773 µM
SF-268 CNS
  GI50: 0.0193 µM
  TGI: 0.0886 µM
EKVX NSCLC
  GI50: 0.0245 µM
  TGI: 0.0812 µM
RPMI-8226 leukemia
  GI50: 0.0197 µM
  TGI: 0.0398 µM
SK-MEL-28 melanoma
  GI50: 0.0244 µM
  TGI: 0.0618 µM
CAKI-1 renal
  GI50: 0.0452 µM
  TGI: 0.269 µM
SN12C renal
  GI50: 0.0406 µM
  TGI: 0.178 µM
SR leukemia
  GI50: 0.0207 µM
  TGI: 0.0353 µM
U251 glioblastoma
  GI50: 0.0365 µM
  TGI: 0.132 µM
UACC-257 melanoma
  GI50: 0.0247 µM
  TGI: 0.0537 µM
M14 melanoma
  GI50: 0.0223 µM
  TGI: 0.0527 µM
HCT-116 colon
  GI50: 0.0172 µM
  TGI: 0.0331 µM
HS 578T breast
  GI50: 0.0263 µM
  TGI: 0.0779 µM
NCI-H322M lung
  GI50: 0.0564 µM
  TGI: 1.14 µM
OVCAR-3 ovarian
  GI50: 0.0143 µM
  TGI: 0.0346 µM
MDA-MB-231 breast
  GI50: 0.0193 µM
  TGI: 0.0527 µM
NCI-H522 lung
  GI50: 0.0335 µM
  TGI: 0.22 µM
SNB-75 CNS
  GI50: 0.0328 µM
  TGI: 0.0852 µM
HOP-92 NSCLC
  GI50: 0.0239 µM
  TGI: 0.0671 µM
OVCAR-5 ovarian
  GI50: 0.033 µM
  TGI: 1.23 µM
LOX IMVI melanoma
  GI50: 0.0177 µM
  TGI: 0.0324 µM
MCF7 breast
  GI50: 0.032 µM
  TGI: 0.106 µM
HL-60(TB) leukemia
  GI50: 0.0173 µM
  TGI: 0.0316 µM
NCI-H23 lung
  GI50: 0.0247 µM
  TGI: 0.063 µM
NCI/ADR-RES ovarian
  GI50: 0.0205 µM
  TGI: 0.0405 µM
A498 renal
  GI50: 0.081 µM
  TGI: 1.07 µM
SF-295 CNS
  GI50: 0.0351 µM
  TGI: 0.155 µM
MOLT-4 leukemia
  GI50: 0.0149 µM
  TGI: 0.0287 µM
HT29 colon
  GI50: 0.0219 µM
  TGI: 0.0548 µM
COLO 205 colon
  GI50: 0.0246 µM
  TGI: 0.0689 µM
SK-MEL-5 melanoma
  GI50: 0.0194 µM
  TGI: 0.0373 µM
OVCAR-4 ovarian
  GI50: 0.0242 µM
  TGI: 0.158 µM
OVCAR-8 ovarian
  GI50: 0.0196 µM
  TGI: 0.0431 µM
SK-OV-3 ovarian
  GI50: 0.0523 µM
  TGI: 0.293 µM
